Data set [1] in a line: Serum ALT and AST, CD1 mice. The following applies: paclitaxel 10 mg/kg, CTR 30 mg/kg, combinations paclitaxel 5 + CTR 15 mg/kg, vehicle 38.76 ± 0.17, in U/L (unit assumed).
Source text: Alanine transaminase (ALT, SUP6001-c) and Aspartate transaminase (AST, SUP6002-c) color endpoint assay kits were purchased from ID Labs (London, Ontario, Canada).
Blood samples were collected via cardiac puncture and processed for ALT and AST measurements. The animals were then immediately euthanized by carbon dioxide.
Data set [2] in a line: Serum ALT and AST, ATH490 mice. Conditions: 30 days, paclitaxel 10 mg/kg, CTR 30 mg/kg, combinations 5 + 15 mg/kg; for ALT: sham 64.03± 4.04; for AST: sham 112.46 ± 4.74.
Procedure: For paclitaxel treatments, 40 mg/ml stock solution of paclitaxel (Sigma, MO) was prepared in DMSO. […] Alanine transaminase (ALT, SUP6001-c) and Aspartate transaminase (AST, SUP6002-c) color endpoint assay kits were purchased from ID Labs (London, Ontario, Canada).
Athymic mice engrafted with tumor cells were used to determine antitumor activity. […] When tumor size reached 5–6 mm in diameter (n = 4–5 per group), mice were randomly assigned into several groups and vehicle-treated or treated with drug(s). […] Animals were monitored for food and water consumption every day, and their body weights and tumor volumes were measured twice per week. Tumor volumes were measured with a digital caliper and were determined by the following formula: ½ length × width^2. Blood samples were collected via cardiac puncture and processed for ALT and AST measurements. The animals were then immediately euthanized by carbon dioxide.
carri ed out using GraphP ad Prism software. All values are pr esented as mean±S.E.M.
Comparison between each group was made b y p values determined using one-wa y ANOVA. The
p value of <0.05 is consi dered to be statisticall y significant. Each organ weight was norm alized
with total body mass (BM) as expressed in %.
ATH490 athymic mice were vehicle -treated (Sham) or treated with indicated compounds
and doses for 30 da ys , followed by harvesting liver ( and other o r gans ; Fi g. 7d) for an al ysis of
their toxic effects . […] ( b) Blood sera w erecollected from mice
treated with indicated compounds and doses, and then examinedthe levels of ALT and AST to
gain insight into liver toxicity.
All values ar e present ed as mean±S.E .M.
Another data set has as its system H69AR. The data set can be described thus: SRB cell viability, multidrug-resistant cells. Type of data set: cell-based. Conditions: for IC50: Homo sapiens, H69AR. The method, then: (§1) Cell line authentication was carried out by Genetica DNA
(§2) Cell viability, com binational i ndex and cell synchronization
(§3) Cell viability and proliferation were ex amined using a s ulforhodamine B (SRB) assa y as […]
(§4) IC 50 values were calculat ed from si gmoidal dose-response cu rves gen erat ed b y at least two indepen dent ex periments , with each quadruplicate samples, using GraphPad Prism v.5.04 software (GraphPad Software, Inc, La J olla, CA). […]
(§5) (sham) or presence of compound(s). […]

Data set [3] has as its system non-cancerous cells (MCF 10A and 184B5). Briefly: SRB cell viability, cancer vs non-cancer cells. Conditions: cancer cells vs MCF 10A and 184B5. Type of data set: cell-based. Here is the method: and MCF10AT1 cells were cultured in Dulbecco's Modified Eagle's Medium/Ham's Nutrient Mixture F-12 (DME/F12) supplemented with 10% (volume/volume) FBS , 100 μg/ml streptom ycin and 100 units/ml penicillin, antim ycotic solution, 0.5 μg/ml hydrocortisone, 10 ng/ml human epiderm al growth factor (hEGF) and 5 μg/ml insulin, whereas MCF10CA1a cell line was cultured in DM EM supplemented with 10% FBS (volume/volume). […]
Dr. Susan Cole (Queen’s Universit y, Kingston, Ontario, Canada). The pacl itaxel-resistant MDA-MB-231TaxR cell line was generated in house b y culturing MDA-MB-231 cells (purchased from ATCC and authen ticated ) in the gradual l y incr easi ng con centr ations of pacl itax el until the concentration reached to 100 nM. Cell line authentication was carried out by Genetica DNA Laboratories (Burlington, NC) using a short tandem repeat (STR) profiling method (March 2015; […]
as §2
Cell viability and proliferation were ex amined using a s ulforhodamine B (SRB) assa y as described previousl y (Hu et al., 2008). IC 50 values were calculat ed from si gmoidal dose-response cu rves gen erat ed b y at least two indepen dent ex periments , with each quadruplicate samples, using GraphPad Prism v.5.04 software (GraphPad Software, Inc, La J olla, CA). […]

For data set [4], the target named is T1, purified porcine tubulin (Sus scrofa, UniProt P02554).
T1 construct: purified porcine tubulin (T240, Cytoskeleton); purchased Cytoskeleton T240
T1 sequence (P02554 whole entry): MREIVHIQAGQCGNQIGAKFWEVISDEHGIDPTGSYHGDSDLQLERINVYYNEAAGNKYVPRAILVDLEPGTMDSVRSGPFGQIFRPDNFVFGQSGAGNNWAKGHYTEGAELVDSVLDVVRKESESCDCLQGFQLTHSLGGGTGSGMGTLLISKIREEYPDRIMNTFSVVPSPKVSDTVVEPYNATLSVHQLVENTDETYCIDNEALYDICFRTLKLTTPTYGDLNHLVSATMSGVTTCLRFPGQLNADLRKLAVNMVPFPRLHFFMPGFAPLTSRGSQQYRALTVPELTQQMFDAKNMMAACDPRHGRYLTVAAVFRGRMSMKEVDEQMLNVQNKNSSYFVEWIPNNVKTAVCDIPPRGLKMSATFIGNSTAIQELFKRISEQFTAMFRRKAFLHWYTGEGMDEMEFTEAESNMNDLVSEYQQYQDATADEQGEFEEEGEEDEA
T1 sequence (P02550 whole entry partner): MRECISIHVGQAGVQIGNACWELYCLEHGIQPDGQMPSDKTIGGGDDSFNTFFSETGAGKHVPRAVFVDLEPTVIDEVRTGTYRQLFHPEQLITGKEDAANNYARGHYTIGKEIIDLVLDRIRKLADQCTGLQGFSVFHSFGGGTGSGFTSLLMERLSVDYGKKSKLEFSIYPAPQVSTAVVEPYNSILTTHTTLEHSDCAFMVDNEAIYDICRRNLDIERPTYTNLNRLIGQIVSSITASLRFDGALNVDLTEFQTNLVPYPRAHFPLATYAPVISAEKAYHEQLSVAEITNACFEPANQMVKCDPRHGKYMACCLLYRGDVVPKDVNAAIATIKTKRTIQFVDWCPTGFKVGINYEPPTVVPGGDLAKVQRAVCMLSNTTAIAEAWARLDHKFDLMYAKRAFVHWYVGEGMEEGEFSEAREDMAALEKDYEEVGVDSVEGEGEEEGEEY
Briefly: In vitro microtubule assembly (light scattering) assay. Type of data set: biochemical. The following applies: 3 µmol/L CTR-17, 1 µmol/L CTR-20; 340 nm, one hour, 37 °C. Here is the method: Figure 5 CTRs inhibited microtubule polymerization by binding to tubulin through the colchicine-binding pocket. (a) CTRs inhibited microtubule polymerization in a similar manner to that of nocodazole. Purified porcine tubulin and 1.0 mmol/L GTP were added to reaction mixture (37 °C) containing 10 µmol/L paclitaxel (Tax), 3 µmol/L CTR-17, 1 µmol/L CTR-20, or 5 µmol/L nocodazole (Noco). Polymerization of microtubule was monitored every minute for one hour at 340 nm by spectrophotometry. Note that G-PEM buffer contains 400 µg of purified tubulin. (b) CTR-20 (and CTR-17; Supplementary Fig. S12) bound tubulin. CTR-20 quenched the intrinsic tryptophan fluorescence of tubulin in a dose-dependent manner. The changes in fluorescence intensity (∆F) were plotted against drug concentrations to determine the dissociation constant. […] CTR-20 (and CTR-17; Supplementary Fig. S12) depressed the fluorescence of the colchicine-tubulin complex in a dose-dependent manner. The fluorescence intensity of the final tubulin complex was used to determine the inhibitory concentration (Ki) using a modified Dixon plot. The fluorescence intensity was normalized by subtracting any intrinsic fluorescence of CTR-20 at given doses from that of the complex. “F” is the fluorescence of the CTR-colchicine-tubulin complex, and “F0” is the fluorescence of the colchicine-tubulin complex. […]

The test system of data set [5] is KB-C-2. The data set can be described thus: SRB cell viability, MDR1-overexpressing cells. The format is cell-based. The following applies: Homo sapiens, KB-C2; KB-C-2 MDR1-overexpressing cells. Here is the method: (§6) human epidermoid carcinoma cell line and KB-C2, an isogenic MDR1- overexpressing drug-resistant cell line, were kindl y provided b y Dr. Amit K Tiwari, the Universit y of Toledo, OH. […]
as §1, §2, §3, §4, §5

In data set [6] the target is T1, purified porcine tubulin. The data set can be described thus: Intrinsic tryptophan fluorescence quenching of tubulin. Type of data set: binding. The method, then:
A two-step extraction procedure was used to differentially extract tubulin heterodimers and microtubules from sham-treated cells or those treated with compounds as described previously. To determine the binding ability of CTR compounds to tubulin, the changes in the intrinsic tryptophan fluorescence of purified porcine tubulin (T240, Cytoskeleton) was measured as described previously. GraphPad Prism software was used to determine the dissociation constant of CTRs bound to tubulin, and the following formula was used: ∆F=∆Fmax×C/Kd+C Where, ΔF is the changes in the fluorescence intensity of the tubulin when bound by CTR; ΔFmax is the maximum change in the fluorescence intensity; C is compound concentration; and Kd is the dissociation constant of the compound. The experiment was repeated five times.

The next data set deals with KB-C-1. Briefly: SRB cell viability, parental cells. The format is cell-based. The following applies: Homo sapiens, KBC-1; parental KB-C-1. The method, then: as §6, §1, §2, §3, §4, §5
The nature of data set [7]: Body and organ weights, side effects. The following applies: CTR-17 30 mg/kg, CTR-20 30 mg/kg, paclitaxel 10 mg/kg; CD-1 or ATH490 strains.
Procedure: Athymic mice engrafted with tumor cells were used to determine antitumor activity. […] When tumor size reached 5–6 mm in diameter (n = 4–5 per group), mice were randomly assigned into several groups and vehicle-treated or treated with drug(s). […] Animals were monitored for food and water consumption every day, and their body weights and tumor volumes were measured twice per week. Tumor volumes were measured with a digital caliper and were determined by the following formula: ½ length × width^2. Blood samples were collected via cardiac puncture and processed for ALT and AST measurements. The animals were then immediately euthanized by carbon dioxide. Tumors and vital organs (spleen, kidney, liver and lung) were harvested and fixed in 10% buffered formalin at 4 °C overnight before being processed for a paraffin embedding. The paraffin-embedded blocks were then sectioned to 4–5 µm thick. Each section was stained with haematoxylin and eosin (H&E).
In a further data set the test system is SW-1271. The data set can be described thus: SRB cell viability. Type of data set: cell-based. The following applies: SW1271. Here is the method: as §1, §2, §3, §4, §5
In data set [8] the test system is KB-C-2. The data set can be described thus: SRB cell viability, MDR1-overexpressing cells. Conditions: KB-C-2 vs KB-C-1; Table S1. Type of data set: cell-based, human.

For the molecule `COc1ccccc1C(=O)/C=C/c1cc2ccccc2[nH]c1=O` [CTR-17, (E)-3-(3-(2-Methoxyphenyl)-3-oxoprop-1-enyl)quinolin-2(1H)-one], the “levels of ALT and AST” value in [1] is given as 37.02 ± 1.46. The ALT in [2] is 64.67± 5.26 IU/L. Moreover, in data set [2], the AST stood at 114.13 ± 6.36 IU/L. The “Resistance (fold)” value with H69AR (H69AR vs SW-1271, Table S1) was 0.45 fold; with KB-C-2 [8], 1.71 fold. Moreover, the IC50 was 520 ± 100 nM with H69AR, 650 ± 160 nM in the data set on KB-C-2 [5], 380 ± 70 nM in the data set with KB-C-1 and 1140 ± 40 nM in the data set with SW-1271. In data set [3], the “killed cancer cells more effectively than non-cancerous cells” value is 20–26 folds. Further, the “effect on microtubule polymerization” value at purified porcine tubulin [4] is listed as “inhibit microtubule polymerization”. Further, binding at purified porcine tubulin [6] was characterised by a dissociation constant (Kd) of 4580 ± 950 nM. Moreover, the “side effects (changes in body and organ weights)” value in [7] is recorded as “did not cause any notable side effects”.
For `COc1ccc2[nH]c(=O)c(/C=C/C(=O)c3ccccc3OC)cc2c1` [CTR-20, (E)-6-Methoxy-3-(3-(2-methoxyphenyl)-3-oxoprop-1-enyl) quinolin-2(1H)-one], the “levels of ALT and AST” value in data set [1] came out at 30.43 ± 0.49. Besides, in data set [2], the ALT stood at 50.50± 9.96 IU/L. In [2], the AST came to 118.22±17.00 IU/L. Further, the IC50 with H69AR worked out at 130 ± 10 nM; in the data set with KB-C-2 [5] it was 250 ± 30 nM; with KB-C-1, 100 ± 10 nM; in the data set on SW-1271, 1950 ± 10 nM. For the same molecule, the “killed cancer cells more effectively than non-cancerous cells” value in data set [3] is 20–26 folds. In addition, the “effect on microtubule polymerization” value on purified porcine tubulin [4] was “inhibit microtubule polymerization”. Further, binding at purified porcine tubulin [6] was put at a Kd of 5090 ± 490 nM. In addition, the “side effects (changes in body and organ weights)” value in data set [7] is listed as “did not cause any notable side effects”. The “Resistance (fold)” value in the data set with KB-C-2 [8] is 2.50 fold.

For the origin of these results see paper PMC5578999, “Novel quinolone chalcones targeting colchicine-binding pocket kill multidrug-resistant cancer cells by inhibiting tubulin activity and MRP1 function” (Scientific Reports, 2017).
